Reference: a melting point compilation (Tetko et al.; mined from patent text by program, amines drawn as free bases though some values may be those of a salt)

melting point | SMILES
255 to 256 °C | Cn1c(-c2ccccc2)c2c(c(C#N)c1=O)-c1ccccc1C2=O
127 to 128 °C | Oc1nc(-c2ccccc2)sc1CCc1ccccc1
198 to 200 °C | COc1ccc(C(=O)Nc2ccc(C(C)(C)C#N)c(-c3cncnc3)c2)cc1OC
128 °C | CCOP(=O)(OCC)c1ccc2cccc(-c3cccc4ccccc34)c2n1
93 to 95 °C | COC(=O)CC[C@H](NC(=O)c1cn(C(c2ccccc2)(c2ccccc2)c2ccccc2)c(C#Cc2cnc3nc(NC(=O)C(C)(C)C)nc(O)c3c2)n1)C(=O)OC
201 to 203 °C | O=C(Cc1cccc(C(F)(F)F)c1)c1c(O)c2cccnc2n(-c2ccccc2)c1=O
275 to 280 °C | CN=C1C2=C(C=CC1CN(C)c1ccc(C(=O)OC)cc1)C(C)(C)CCC2(C)C (stereo not given)
194 to 196 °C | CS(=O)(=O)c1ccc(-n2nc(C(F)(F)F)cc2-c2nc3ccc(F)cc3s2)cc1
229 to 236 °C | CN(C)c1ccc(CN2C(=O)C3(COc4cc5c(cc43)OCCO5)c3ccccc32)nc1 (stereo not given)
206 to 208 °C | O=C1OC2(CCN(C(=O)Nc3cnc(-c4ccccc4)cn3)CC2)c2cc(O)ccc21
233 to 234 °C | Cc1nc(-n2cnn(Cc3c(C)noc3C)c2=O)sc1C(=O)NCc1cccnc1
235 to 236 °C | O=C(Nc1cc(Cl)cc(Cl)c1)c1ccccc1SSc1ccccc1C(=O)Nc1cc(Cl)cc(Cl)c1
227 °C | O=C(NCC1CN(c2ccc(N3CCOCC3=O)cc2)C(=O)O1)c1ccc(Cl)s1 (stereo not given)
153 °C | CCNC(=O)c1ccc(-n2nnc(C(=O)NC3CC3)c2CNCc2ccccc2)cc1
210 °C | COc1ccc(Nc2ccnc(Nc3cc(OC)c(OC)c(OC)c3)n2)cc1
145 to 147 °C | Cc1oc(-c2ccccc2)nc1CCc1noc2cc(CC(Sc3ccccc3)C(=O)O)ccc12 (stereo not given)
95 to 97 °C | CCCc1c[nH]c(-c2ccnc(NC(=O)c3ccccc3)c2)n1
139 to 141 °C | CC(=O)N1CCc2nc(C)nc(-c3ccc(Cl)cc3)c2C1
133 to 137 °C | CC(C)(C)OC(=O)NC1C(=O)N(C(O)C(=O)OC(c2ccccc2)c2ccccc2)C1CBr (stereo not given)
230 to 232 °C | COC(=O)[C@H](Cc1ccc(NC(=O)c2c(Cl)cccc2Cl)cc1)NC(=O)c1ccc(C(=O)Nc2cccc(O)c2)cc1Cl

melting point | SMILES
192 to 195 °C | Cc1ccc2c(c1)N(CC(=O)c1ccccc1C)C(=O)C(NC(=O)Nc1ccc(C)c(C(=O)O)c1)CN2C(=O)c1cccs1 (stereo not given)
219 to 221 °C | Oc1ccc(C2(c3ccc(O)c(F)c3)c3ccccc3-c3ccccc32)cc1F
140 to 142 °C | Nc1cc(-c2ccccc2CCN2CCN(c3nccn3-c3ccccc3)CC2)ccn1
205 to 208 °C | CCOC(=O)Nc1cc(-c2cccc3ccccc23)c2nc(C(=O)O)ccc2c1
130 to 131 °C | CC(C)(C)OC(=O)Nc1cccc(C(=O)NCCC(=O)OCc2ccccc2)c1
67 to 69 °C | O=Cc1cc(-c2ccccc2)no1
71.5 to 72.5 °C | O=C(O)CCCCC=C(c1ccccc1)c1ccccc1
182 to 184 °C | c1cnc2ccc(Cn3nnc4ccc(-c5cnn(C6CCOCC6)c5)nc43)cc2c1
144 to 146 °C | Cc1ccc2oc([N+](=O)[O-])c(-c3ccccc3)c2c1
172 to 174 °C | CC(CO)(CO)NS(=O)(=O)c1cccc(C#Cc2cnn3c(C(F)F)cc(-c4ccc(C(F)(F)F)cc4)nc23)c1
106 °C | Fc1ccc([C@H]2CC[C@H](N3CCN(Cc4ccccc4)CC3)CC2)cc1
71 to 72 °C | FC(F)(F)c1cnc(-c2ccc(Cl)c(CBr)c2)c(Cl)c1
210 °C | Cn1c(=O)cc(C(N)=S)c2cc(C(=O)c3ccc(Cl)cc3)ccc21
194 to 196 °C | CC1(C)CON(Cc2ccc(NC(=O)Cc3ccccc3C(=O)O)cc2Cl)C1=O
149 to 151 °C | O=C(C=Cc1cccnc1)NCCCCN1CCCN(C(c2ccccc2)c2ccccc2)CC1
44 °C | CCc1nc(-c2ccccc2Cl)nn1C
137 to 138 °C | COC(=O)c1cc(N=Nc2ccc(S(=O)(=O)Cl)cc2)ccc1O
336 to 338 °C | O=c1[nH]nc2ccc(-c3ccc(Cl)c(Cl)c3)nn12
128 to 130 °C | Cc1nc(-c2ccc(C(F)(F)F)cc2)sc1CCOc1ccc(CC(=O)O)cc1
131 to 133 °C | CCc1c(CO)c(CO)c2n1-c1ccccc1C2

Second part, the compound before the results:

SMILES | melting point
CC(C)(C)NC(=O)C(=O)c1ccccc1 | 76 to 77 °C
CCOC(=O)C(O)=CC(=O)c1c[nH]c2ccccc12 | > 300 °C
BrCc1ccc2ncoc2c1 | 52 to 56 °C
CC1CCCCN1C(=O)C=Cc1ccc(C(F)(F)F)cc1 (stereo not given) | 88 to 89 °C
CCOC(=O)c1c2ccc(CC(=O)N(OC)C3COC(C)(C)O3)ccc-2c(C(=O)OCC)c1N (stereo not given) | 135 to 137 °C
CNS(=O)(=O)Cc1ccc(C)cc1 | 49 to 52 °C
Cc1cc(O)cc(O)c1C=O | 174 to 177 °C
COCCOCCOC(=O)C#CC(=O)c1cc(OC)c(OC)c(OC)c1 | 33 to 34 °C
CC(=O)OC1CCN(c2c(F)cc3c(=O)c(C(=O)O)cn4c3c2CCC4C)CC1 (stereo not given) | 250 to 253 °C
CCOCc1nc2c(N)nc(C)c(C)c2n1CCCCS(N)(=O)=O | 200 to 202 °C
NC(=O)C(Oc1ccc(Cl)cc1)(C(F)(F)F)C(F)(F)F | 77 to 79 °C
CC(C)(C)NNC(=O)C(C)(C)C | 97 to 105 °C
CCOC(=O)c1cn(Cc2ccccc2)nc1NC(=O)NC(C)(C)C | 130 to 131 °C
NC1=Nc2ccc(I)cc2C(c2ccccc2F)=NC1 | 219 to 221 °C
CCOC(=O)C(=O)c1cn(Cc2ccc(C(C)(C)C)cc2)c2cc(-c3ccc(C(F)(F)F)cc3)ccc12 | 164 to 165 °C
CON=CCN1C(=O)C(NC(=O)c2cc3ccccc3[nH]2)N=C(c2ccccc2)c2ccccc21 (racemic) | 169 to 174 °C
CCn1cc(C(=O)O)c(=O)c2c1SC(=NOCC(=O)O)C2 | 249 to 250 °C
COc1ccc2cc([C@H](C)C(=O)OCC(=O)N(C)CC(=O)OC(C)(C)C)ccc2c1 | 103 to 104 °C
COC(=O)c1nc(-c2ccc(Cl)c(OC)c2F)nc(N)c1C(F)CBr (stereo not given) | 144 to 146 °C
NC(=S)Nc1ncccn1 | 262 to 264 °C
CN1CCC(C2c3sccc3CCn3ncnc32)CC1 (stereo not given) | 123 °C
CCC(O)c1cc(C)nc(Oc2c(C)cc(C)cc2C)c1C (stereo not given) | 119 to 120 °C
COC(=O)N1CCc2ccc3cc[nH]c3c2CC1 | 169 to 171 °C
Cc1cn(C2CCCCC2)c(=O)nc1NS(=O)(=O)c1ccc(N)cc1 | 203 to 206 °C
CC12CCCC1C1CCc3cc(C(=O)O)ccc3C1CC2 (stereo not given) | 235 to 240 °C
Cc1cccc2nc(CCl)cn12 | 120 to 121 °C
O=[N+]([O-])c1ccccc1C1=NCC(=S)Nc2sc(Cl)cc21 | 213 to 215 °C
N#CCNC(=O)C(Cl)=C(Cl)Cl | 58 to 60 °C
COC(=O)C(=CNc1ncnc2ccc(NC(=O)C(C)(C)C)cc12)C(=O)OC | 189 to 190 °C
Cc1cc([N+](=O)[O-])ccc1NC(=O)C1=C(O)N(C)S(=O)(=O)c2cscc21 | 186 to 188 °C
